≈ marks a conversion by molar mass, not a printed value.
Tests used:
[1] = Equilibrium aqueous solubility of the compound in pH 6.8 solution; type: physicochemical; settings: aqueous pH 6.8 solution
[2] = Lipophilicity of the compound, high-throughput logP using octanol-coated immobilized artificial membranes at pH 7.4; type: physicochemical
[3] = Distribution coefficient of the compound, high-throughput logD using octanol-buffer at pH 7.4 by LC-MS/MS analysis shake flask method; type: physicochemical
[4] = Intrinsic clearance in rat liver microsomes; type: ADME, Microsome; settings: read-out: CLH
[5] = molecular target: Cytochrome P450 3A4 (Homo sapiens, UniProt P08684); assay: Time dependent inhibition of CYP3A4 (unknown origin); type: ADME; design: concentration or dose not given beside the values
[6] = Inverse agonist activity at RORgammat in rat whole blood assessed as reduction in Con A/IL-23-stimulated IL-17 secretion after 72 hrs by ELISA
[7] = Inhibition of RORgammat in rat CD4+ T-cells polarized with Th17 cytokine mix assessed as inhibition of IL-17 secretion
[8] = Dose normalized AUC in Sprague-Dawley rat at 1 mg/kg, iv; type: ADME, organism-based; settings: in vivo
[9] = Terminal half life in Sprague-Dawley rat at 1 mg/kg, iv; type: ADME, organism-based; settings: in vivo, read-out: beta t1/2 (converted)
[10] = Oral bioavailability in Sprague-Dawley rat at 3 mg/kg; type: ADME, organism-based; settings: in vivo
[11] = Dose normalized Cmax in Sprague-Dawley rat at 3 mg/kg, po; type: ADME, organism-based; settings: in vivo
[12] = Dose normalized AUC in Sprague-Dawley rat at 3 mg/kg, po; type: ADME, organism-based; settings: in vivo
[13] = Volume of distribution at steady state in Sprague-Dawley rat at 1 mg/kg, iv; type: ADME, organism-based; settings: in vivo, read-out: Vdss
[14] = Tmax in Sprague-Dawley rat at 3 mg/kg, po; type: ADME, organism-based; settings: in vivo
[15] = Clearance in Sprague-Dawley rat at 1 mg/kg, iv; type: ADME, organism-based; settings: in vivo

Chain of Cytochrome P450 3A4 (P08684 whole entry): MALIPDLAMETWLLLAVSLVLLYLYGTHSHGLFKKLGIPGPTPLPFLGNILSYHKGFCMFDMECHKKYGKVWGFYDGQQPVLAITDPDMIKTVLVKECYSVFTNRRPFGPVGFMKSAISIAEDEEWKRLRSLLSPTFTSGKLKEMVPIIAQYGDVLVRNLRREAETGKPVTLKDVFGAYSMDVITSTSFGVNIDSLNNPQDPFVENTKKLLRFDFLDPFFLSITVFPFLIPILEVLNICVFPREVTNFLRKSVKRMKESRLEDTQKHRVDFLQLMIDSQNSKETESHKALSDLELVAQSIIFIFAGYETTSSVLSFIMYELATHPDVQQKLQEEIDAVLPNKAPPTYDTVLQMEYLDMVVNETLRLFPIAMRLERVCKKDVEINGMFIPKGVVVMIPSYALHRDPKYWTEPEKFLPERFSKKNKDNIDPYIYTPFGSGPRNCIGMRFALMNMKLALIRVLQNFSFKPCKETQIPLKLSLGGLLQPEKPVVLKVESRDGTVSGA

solubility thermodynamic [1] | logD [2] | logD [3] | microsomal CLint [4] | IC50 [6] | IC50 [7] | Compound | also measured
> 1000 µM | 2.5 | 2.5 | 49 µL/min/mg | – | – | Cc1c(C(F)(F)F)nc(-c2ccc(Cl)o2)n1-c1c(Cl)ccc(N2CC(c3nnn[nH]3)C2)c1Cl | –
– | – | 3.2 | – | 0.079 µM | 0.306 µM | Cc1c(C2(C(F)(F)F)CC2)nc(-c2ccc(Cl)o2)n1-c1c(Cl)ccc(NCC(C)(C)C(=O)O)c1Cl (single isomer, unassigned; atropisomer) | K [5]: 0.011 min⁻¹
– | – | 2.5 | – | 0.696 µM | 0.869 µM | Cc1c(C(F)(F)F)nc(-c2ccc(Cl)o2)n1-c1c(Cl)ccc(N2CC(CC(=O)O)C2)c1Cl | K [5]: > 0.1 min⁻¹
690 µM (≈ 333 µg/mL) | 3 | 3 | 222 µL/min/mg | – | – | Cc1c(CC(C)C)nc(-c2ccc(Cl)o2)n1-c1c(Cl)ccc(N2CC(C(=O)O)C2)c1Cl (single isomer, unassigned; atropisomer) | AUC/dose [8]: 156 nM·h; half-life [9]: 12 min; bioavailability [10]: 45%; Cmax/dose [11]: 0.166 µM; AUC/dose [12]: 70 nM·h; Vd [13]: 3.6 L/kg; Tmax [14]: 36 min; clearance [15]: 13.7 L/h/kg
> 1000 µM | 2.4 | 2.4 | 56 µL/min/mg | 4.51 µM | 1.69 µM | Cc1c(C(F)(F)F)nc(-c2ccc(Cl)o2)n1-c1c(Cl)ccc(N2CC(C(=O)O)C2)c1Cl (single isomer, unassigned; atropisomer) | AUC/dose [8]: 1179 nM·h; K [5]: 0.047 min⁻¹; half-life [9]: 276 min; bioavailability [10]: 80%; Cmax/dose [11]: 0.181 µM; AUC/dose [12]: 945 nM·h; Vd [13]: 4 L/kg; Tmax [14]: 78 min; clearance [15]: 1.8 L/h/kg
< 4 µM | > 6.9 | > 6.9 | 693 µL/min/mg | 0.294 µM | 0.325 µM | Cc1c(CC(C)C)nc(-c2ccco2)n1-c1c(Cl)cccc1Cl | –
< 4 µM | 6.3 | 6.3 | 722 µL/min/mg | – | – | Cc1c(C(F)(F)F)nc(-c2ccc(Cl)o2)n1-c1c(Cl)cccc1Cl | –
> 1000 µM | 1.1 | 1.1 | 33 µL/min/mg | – | – | N#Cc1cccc(C#N)c1-n1cc(C2CC2)nc1-c1cnco1 | –
– | > 6.9 | – | – | 0.082 µM | 0.056 µM | Cc1c(Cc2ccccc2)nc(-c2ccco2)n1-c1c(Cl)cccc1Cl | –
350 µM (≈ 111 µg/mL) | 2 | 2 | 153 µL/min/mg | – | – | CC(C)Cc1cn(-c2c(C#N)cccc2C#N)c(-c2cnco2)n1 | –
40 µM (≈ 19.7 µg/mL) | 4.9 | 4.9 | 169 µL/min/mg | – | – | Cc1c(C(F)(F)F)nc(-c2ccc(Cl)o2)n1-c1c(Cl)ccc(N2CC(C(N)=O)C2)c1Cl (single isomer, unassigned; atropisomer) | –

Compound | solubility thermodynamic [1] | logD [2] | logD [3] | microsomal CLint [4] | IC50 [6] | IC50 [7] | also measured
CCOC(=O)C(C)N(C(=O)c1cccs1)c1c(C)cccc1Cl (racemic) | – | 3.6 | – | – | – | – | –
CC(C)OC(=O)[C@H](C)N(C(=O)c1ccco1)c1c(Cl)cccc1Cl | – | 4.1 | – | – | – | – | –

— ChEMBL document CHEMBL4321852, “Structure-Based and Property-Driven Optimization of N-Aryl Imidazoles toward Potent and Selective Oral RORγt Inhibitors” (J Med Chem, 2019)
